Values after ≈ are worked out from the molar mass of the structure shown.
Experiments:
[1] = Cytotoxicity against mock-infected human MT4 cells assessed as reduction in cell viability after 5 days by MTT assay; assay type: cell-based
[2] = test system: Human immunodeficiency virus 1; assay: Antiviral activity against HIV1 RES056 containing reverse transcriptase K103N + Y181C mutant infected in human MT4 cells assessed as inhibition of virus-induced cytopathic effect after 5 days by MTT assay; assay type: functional, organism-based; conditions: Human immunodeficiency virus 1, RES056, MT4, 120 h
[3] = Selectivity index, ratio of CC50 for mock-infected human MT4 cells to EC50 for HIV1 RES056 RES056 containing reverse transcriptase K103N + Y181C mutant infected in human MT4 cells; assay type: toxicity, cell-based; conditions: read-out: Selectivity Index
[4] = Selectivity index, ratio of CC50 for mock-infected human MT4 cells to EC50 for wild type HIV1 3B infected in human MT4 cells; assay type: toxicity, cell-based; conditions: read-out: Selectivity Index
[5] = test system: Human immunodeficiency virus 2; assay: Antiviral activity against HIV2 ROD infected in human MT4 cells assessed as inhibition of virus-induced cytopathic effect after 5 days by MTT assay; conditions: Human immunodeficiency virus 2, ISOLATE ROD, MT4, 120 h
[6] = test system: Human immunodeficiency virus 1; assay: Antiviral activity against wild type HIV1 3B infected in human MT4 cells assessed as inhibition of virus-induced cytopathic effect after 5 days by MTT assay; assay type: functional, organism-based; conditions: Human immunodeficiency virus 1, 3B, MT4, 120 h
[7] = target: Human immunodeficiency virus type 1 reverse transcriptase (Human immunodeficiency virus 1, UniProt Q72547); assay: Inhibition of recombinant wild type HIV1 reverse transcriptase assessed as reduction in biotin-dUTP incorporation using poly(A)/oligo(dT)15 as template/primer after 1 hr by ELISA
[8] = Selectivity index, ratio of CC50 for mock-infected human MT4 cells to EC50 for HIV2 ROD infected in human MT4 cells; assay type: toxicity, cell-based; conditions: read-out: Selectivity Index
[9] = Aqueous solubility of the compound in water at pH 7.0 after overnight incubation by HPLC-UV analysis; assay type: physicochemical
[10] = Aqueous solubility of the compound at phosphate buffer of pH 2.0 after overnight incubation by HPLC-UV analysis; assay type: physicochemical
[11] = Half life of the compound in phosphate buffer of pH 7.4 by HPLC-UV analysis; assay type: physicochemical
[12] = Aqueous solubility of the compound in phosphate buffer of pH 7.4 after overnight incubation by HPLC-UV analysis; assay type: physicochemical
[13] = Half life of the compound in phosphate buffer of pH 2.0 by HPLC-UV analysis; assay type: physicochemical
[14] = test system: Human immunodeficiency virus 1; assay: Potency index, ratio of lamivudine EC50 to compound EC50 for antiviral activity against wild type HIV1 3B infected in human MT4 cells; assay type: functional
[15] = Solubility of the compound; assay type: physicochemical

| SMILES | CC50 at 120 h [1] [µM] | EC50 [2] [µM] | selectivity ratio [3] | selectivity ratio [4] | EC50 [5] [µM] | EC50 [6] [µM] | IC50 [7] [µM] | selectivity ratio [8] | solubility [9] [µg/mL] | solubility [10] [µg/mL] | half-life [11] [h] | solubility [12] [µg/mL] | half-life [13] [h] | Ratio EC50 [14] | solubility [15] [µg/mL] |
| --- | --- | --- | --- | --- | --- | --- | --- | --- | --- | --- | --- | --- | --- | --- | --- |
| CS(=O)(=O)c1ccc(NC(=O)Cn2ccc(C(F)(F)F)c(Oc3cc(Cl)cc(C#N)c3)c2=O)cc1 | 112 | > 112 | < 1 | 3 | > 112 | 42.1 | 1 | < 1 |  |  |  |  |  |  |  |
| O=C1Nc2ccc(Cl)cc2[C@@](C#CC2CC2)(C(F)(F)F)O1 [EFAVIRENZ] | > 3.16 | 0.244 |  |  |  | 0.007 |  |  |  |  |  |  |  |  |  |
| N#Cc1cc(Cl)cc(Oc2c(C(F)(F)F)ccn(CC(=O)Nc3cn[nH]c3)c2=O)c1 | 46.1 | 0.343 | 134 | 775 | ≥ 33.4 | 0.0595 | 1.25 | ≤ 1 |  |  |  |  |  |  |  |
| Cn1c(Cn2ccc(C(F)(F)F)c(Oc3cc(Cl)cc(C#N)c3)c2=O)nn(COP(=O)(O)O)c1=O | > 234 | > 234 | 1 | > 893 | > 234 | 0.262 | 0.93 | 1 | 4560 (≈ 8510 µM) | 4220 (≈ 7870 µM) | > 24 | 5190 (≈ 9680 µM) | > 24 |  |  |
| N#Cc1cc(Cl)cc(Oc2c(C(F)(F)F)ccn(CC(=O)Nc3ccncc3)c2=O)c1 | 133 | > 133 | < 1 | 4 | > 133 | 32.4 | 32.5 | < 1 |  |  |  |  |  |  |  |
| N#Cc1cc(Cl)cc(Oc2c(C(F)(F)F)ccn(CC(=O)Nc3cccnc3)c2=O)c1 | 111 | > 111 | < 1 | < 1 | > 111 | > 111 | 133 | < 1 |  |  |  |  |  |  |  |
| N#Cc1cc(Cl)cc(Oc2c(C(F)(F)F)ccn(CC(=O)Nc3ccc(Br)cc3)c2=O)c1 | 87.9 | > 87.9 | < 1 | < 1 | > 87.9 | > 87.9 | 92.5 | < 1 |  |  |  |  |  |  |  |
| N#Cc1cc(Cl)cc(Oc2c(C(F)(F)F)ccn(CC(=O)Nc3ccc([N+](=O)[O-])cc3)c2=O)c1 | > 254 | > 254 | 1 | > 181 | 145 | 1.4 | 1.27 | > 2 |  |  |  |  |  |  |  |
| N#Cc1cc(Cl)cc(Oc2c(C(F)(F)F)ccn(CC(=O)Nc3ccc(F)cc3)c2=O)c1 | > 269 | > 269 | 1 | > 1 | > 269 | 188 | 72 | 1 |  |  |  |  |  |  |  |
| N#Cc1cc(Cl)cc(Oc2c(C(F)(F)F)ccn(CC(=O)Nc3cnccn3)c2=O)c1 | ≥ 183 | > 183 | 1 | ≥ 6 | > 183 | 29.4 | 63.4 | 1 |  |  |  |  |  |  |  |
| N#Cc1cc(Cl)cc(Oc2c(C(F)(F)F)ccn(CC(=O)Nc3ncn[nH]3)c2=O)c1 | > 285 | 0.196 | > 1450 | > 5200 | 182 | 0.0548 | 0.522 | > 2 |  |  |  |  |  | 234 |  |
| N#Cc1cc(Cl)cc(Oc2c(C(F)(F)F)ccn(CC(=O)Nc3ccc(C(F)(F)F)cc3)c2=O)c1 | 82.3 | > 82.3 | < 1 | 7 | > 82.3 | 12.3 | 30.1 | < 1 |  |  |  |  |  |  |  |
| Nc1ccn([C@@H]2CS[C@H](CO)O2)c(=O)n1 [LAMIVUDINE] | > 87.3 | 7.77 | > 11 | > 7 | ≥ 17.1 | 12.8 |  |  |  |  |  |  |  |  |  |
| Cc1cc(C#N)cc(C)c1Oc1nc(Nc2ccc(C#N)cc2)nc(N)c1Br [ETRAVIRINE] |  |  |  |  |  |  |  |  |  |  |  |  |  |  | < 1 |
| CC(C)OC(=O)OCn1nc(Cn2ccc(C(F)(F)F)c(Oc3cc(Cl)cc(C#N)c3)c2=O)n(C)c1=O | > 231 | > 231 | 1 | > 189 | 152 | 1.22 | 2.11 | > 2 | 27 (≈ 49.8 µM) | 14 (≈ 25.8 µM) |  | 29 (≈ 53.5 µM) |  |  |  |
| Cn1c(Cn2ccc(C(F)(F)F)c(Oc3cc(Cl)cc(C#N)c3)c2=O)n[nH]c1=O [DORAVIRINE] | > 294 | 0.015 |  |  | 142 | 0.013 | 0.019 |  |  |  |  |  |  |  |  |
| N#Cc1cc(Cl)cc(Oc2c(C(F)(F)F)ccn(CC(=O)Nc3ccn[nH]3)c2=O)c1 | ≥ 41.9 | > 41.9 | 1 | ≥ 7 | 134 | 6.34 | 19.4 | 1 |  |  |  |  |  |  |  |

Reference: ChEMBL document CHEMBL4330114 (Bioorg Med Chem, 2019)
